Data set [1] in a line: physchem. The settings on record: water, pH 7.
Description: Solubility of the compound in water at pH 7.0 by HPLC
Data set [2] is described as follows: in vitro. The following applies: human, liver microsomes. Background: Liver microsomes are a subcellular fraction often used to study metabolism.
Description: Metabolic stability in human liver microsomes assessed as compound remaining after 1 hr
A short description of data set [3]: in vitro. The settings on record: CD1, mouse, liver microsomes.
Description: Metabolic stability in CD1 mouse liver microsomes assessed as compound remaining after 1 hr
Data set [4] has as its system Mycobacterium tuberculosis. The experiment in a line: microbe, parasite or virus in culture. The settings on record: H37Rv.
For data set [5], the system named is Mycobacterium tuberculosis. Kind of data set: microbe, parasite or virus in culture. The following applies: H37Rv. This is another data set of the same source.
Description: Antitubercular activity against Mycobacterium tuberculosis H37Rv by LORA method
The nature of data set [6]: physchem. The settings on record: water, pH 1.
Description: Solubility of the compound in water at pH 1.0 by HPLC

SMILES strings stand for the structures. In brackets after ≈: the same amount, converted by molar mass.

In the data set “physchem [1]”, `O=[N+]([O-])c1cn2c(n1)OC[C@@H](OCc1ccnc(-c3ccc(OC(F)(F)F)cc3)c1)C2` gave a solubility of 3.9 µg/mL (≈ 8.94 µM). Also, the figures for the share remaining at 1 h in the data set “in vitro [2]” and in the data set “in vitro [3]” were 54% and 31%, respectively. For the same compound, the MIC in data set [4] was found to be 0.035 µM (≈ 0.0153 µg/mL); in data set [5] it was 2.4 µM (≈ 1.05 µg/mL).
Take `O=[N+]([O-])c1cn2c(n1)OC[C@@H](OCc1ccc(-c3ccc(C(F)(F)F)cn3)cn1)C2`: the solubility in “physchem [1]” was 5.9 µg/mL (≈ 14 µM); in “physchem [6]” it was 442 µg/mL (≈ 1050 µM). For the same compound, the results for the MIC in data set [4] and in data set [5] were 0.83 µM (≈ 0.35 µg/mL) and 9.6 µM (≈ 4.04 µg/mL), respectively.
For `O=[N+]([O-])c1cn2c(n1)OC[C@@H](OCc1ccc(-c3ccnc(F)c3)cn1)C2`, in the data set “physchem [1]”, the solubility was 42 µg/mL (≈ 113 µM). Further, the MIC in data set [4] was determined as 1.7 µM (≈ 0.631 µg/mL); in data set [5] it was 14 µM (≈ 5.2 µg/mL).
With `O=[N+]([O-])c1cn2c(n1)OC[C@@H](OCc1ccc(-c3ccc(C(F)(F)F)cc3)nc1)C2`, the concentration in solution in “physchem [1]” (solubility) came to 1.2 µg/mL (≈ 2.85 µM). Further, the MIC was found to be 0.053 µM (≈ 0.0223 µg/mL) in data set [4] and 0.53 µM (≈ 0.223 µg/mL) in data set [5].
In the same order, the values of `N#Cc1ccc(-c2ccc(CO[C@@H]3COc4nc([N+](=O)[O-])cn4C3)cn2)cc1` are 2.9 µg/mL (≈ 7.68 µM), 0.18 µM (≈ 0.0679 µg/mL) and 6 µM (≈ 2.26 µg/mL).
For the compound `O=[N+]([O-])c1cn2c(n1)OC[C@@H](OCc1ccc(-c3ccc(OC(F)F)cc3)nc1)C2`, the solubility in the data set “physchem [1]” amounted to 1.6 µg/mL (≈ 3.82 µM). The results for the MIC in data set [4] and in data set [5] were 0.02 µM (≈ 0.00837 µg/mL) and 3.4 µM (≈ 1.42 µg/mL), respectively.
In the same order, the values of `COc1ccc(-c2ccc(CO[C@@H]3COc4nc([N+](=O)[O-])cn4C3)cn2)cc1F` are 2.1 µg/mL (≈ 5.25 µM), 0.09 µM (≈ 0.036 µg/mL) and 1.9 µM (≈ 0.761 µg/mL).
In the same order, the values of `O=[N+]([O-])c1cn2c(n1)OC[C@@H](OCc1ccc(-c3ccc(OC(F)(F)F)cc3F)nc1)C2` are 2.2 µg/mL (≈ 4.84 µM), 0.047 µM (≈ 0.0214 µg/mL) and 1.9 µM (≈ 0.863 µg/mL).
In the data set “physchem [1]”, `O=[N+]([O-])c1cn2c(n1)OC[C@@H](OCc1ccc(-c3ccc(Cl)c(OC(F)(F)F)c3)nc1)C2` registered a solubility of 0.22 µg/mL (≈ 0.467 µM). Moreover, the MIC came out at 0.18 µM (≈ 0.0847 µg/mL) in data set [4] and 2.4 µM (≈ 1.13 µg/mL) in data set [5].
In the same order, the values of `O=[N+]([O-])c1cn2c(n1)OC[C@@H](OCc1ccc(-c3ccc(C(F)(F)F)nc3)nc1)C2` are 7 µg/mL (≈ 16.6 µM), 0.19 µM (≈ 0.0801 µg/mL) and 17 µM (≈ 7.16 µg/mL).
In the same order, the values of `O=[N+]([O-])c1cn2c(n1)OC[C@@H](OCc1ccc(-c3ccc(F)nc3)nc1)C2` are 51 µg/mL (≈ 137 µM), 0.37 µM (≈ 0.137 µg/mL) and 13 µM (≈ 4.83 µg/mL).
In the same order, the values of `COc1ccc(-c2ccc(CO[C@@H]3COc4nc([N+](=O)[O-])cn4C3)cn2)cn1` are 51 µg/mL (≈ 133 µM), 0.24 µM (≈ 0.092 µg/mL) and 7.3 µM (≈ 2.8 µg/mL).
Turning to `O=[N+]([O-])c1cn2c(n1)OC[C@@H](OCc1ccc(-c3ccc(C(F)(F)F)cc3)nn1)C2`, in the data set “physchem [1]”, the concentration in solution (solubility) was 5.4 µg/mL (≈ 12.8 µM). For the same compound, the MIC is 0.06 µM (≈ 0.0253 µg/mL) in data set [4] and 2.8 µM (≈ 1.18 µg/mL) in data set [5].
In the same order, the values of `N#Cc1ccc(-c2ccc(CO[C@@H]3COc4nc([N+](=O)[O-])cn4C3)nn2)cc1` are 22 µg/mL (≈ 58.1 µM), 0.36 µM (≈ 0.136 µg/mL) and 13 µM (≈ 4.92 µg/mL).
Regarding `O=[N+]([O-])c1cn2c(n1)OC[C@@H](OCc1ccc(-c3ccc(F)cc3)nn1)C2`, the solubility in the data set “physchem [1]” was determined as 8.3 µg/mL (≈ 22.4 µM). In addition, the MIC in data set [4] is 0.19 µM (≈ 0.0706 µg/mL); in data set [5], 5.6 µM (≈ 2.08 µg/mL).
For the compound `O=[N+]([O-])c1cn2c(n1)OC[C@@H](OCc1ccc(-c3ccc(OC(F)F)cc3)nn1)C2`, the solubility in “physchem [1]” came to 1.3 µg/mL (≈ 3.1 µM). For the same compound, the values for the MIC in data set [4] and in data set [5] were 0.17 µM (≈ 0.0713 µg/mL) and 7.5 µM (≈ 3.15 µg/mL), respectively.
In the same order, the values of `COc1ccc(-c2ccc(CO[C@@H]3COc4nc([N+](=O)[O-])cn4C3)nn2)cc1F` are 6.8 µg/mL (≈ 16.9 µM), 0.25 µM (≈ 0.1 µg/mL) and 6.6 µM (≈ 2.65 µg/mL).
For `O=[N+]([O-])c1cn2c(n1)OC[C@@H](OCc1ccc(-c3ccc(C(F)(F)F)nc3)nn1)C2`, the solubility in the data set “physchem [1]” worked out at 12 µg/mL (≈ 28.4 µM). Further, the MIC worked out at 0.55 µM (≈ 0.232 µg/mL) in data set [4] and 14 µM (≈ 5.91 µg/mL) in data set [5].
In the same order, the values of `COc1ccc(-c2ccc(CO[C@@H]3COc4nc([N+](=O)[O-])cn4C3)nn2)cn1` are 34 µg/mL (≈ 88.5 µM), 0.72 µM (≈ 0.277 µg/mL) and 20 µM (≈ 7.69 µg/mL).
In the same order, the values of `O=[N+]([O-])c1cn2c(n1)OC[C@@H](OCc1cnc(-c3ccc(C(F)(F)F)cc3)cn1)C2` are 0.84 µg/mL (≈ 1.99 µM), 0.08 µM (≈ 0.0337 µg/mL) and 0.97 µM (≈ 0.409 µg/mL).
In the same order, the values of `O=[N+]([O-])c1cn2c(n1)OC[C@@H](OCc1cnc(-c3ccc(F)cc3)cn1)C2` are 8.9 µg/mL (≈ 24 µM), 0.085 µM (≈ 0.0316 µg/mL) and 2 µM (≈ 0.743 µg/mL).
Regarding `O=[N+]([O-])c1cn2c(n1)OC[C@@H](OCc1cnc(-c3ccc(OC(F)F)cc3)cn1)C2`, in “physchem [1]”, the solubility amounted to 5 µg/mL (≈ 11.9 µM). For the same compound, the MIC was 0.2 µM (≈ 0.0839 µg/mL) in data set [4] and 1.3 µM (≈ 0.545 µg/mL) in data set [5].
In the same order, the values of `O=[N+]([O-])c1cn2c(n1)OC[C@@H](OCc1cnc(-c3ccc(C(F)(F)F)nc3)cn1)C2` are 27 µg/mL (≈ 63.9 µM), 0.33 µM (≈ 0.139 µg/mL) and 3.7 µM (≈ 1.56 µg/mL).
In the same order, the values of `O=[N+]([O-])c1cn2c(n1)OC[C@@H](OCc1ncc(-c3ccc(C(F)(F)F)cc3)cn1)C2` are 2.7 µg/mL (≈ 6.41 µM), 0.06 µM (≈ 0.0253 µg/mL) and 3.5 µM (≈ 1.47 µg/mL).
For `O=[N+]([O-])c1cn2c(n1)OC[C@@H](OCc1ncc(-c3ccc(F)cc3)cn1)C2`, the concentration in solution in the data set “physchem [1]” (solubility) was 50 µg/mL (≈ 135 µM). For the same compound, the MIC in data set [4] was found to be 0.13 µM (≈ 0.0483 µg/mL); in data set [5], 12 µM (≈ 4.46 µg/mL).
With `O=[N+]([O-])c1cn2c(n1)OC[C@@H](OCc1ncc(-c3ccc(OC(F)(F)F)cc3)cn1)C2`, the concentration in solution in the data set “physchem [6]” (solubility) came to 5.1 µg/mL (≈ 11.7 µM). Also, the share remaining at 1 h in “in vitro [2]” was 92%; in the data set “in vitro [3]”, 87%. Besides, the figures for the MIC in data set [4] and in data set [5] were 0.11 µM (≈ 0.0481 µg/mL) and 1.9 µM (≈ 0.831 µg/mL), respectively.
In the data set “physchem [1]”, `O=[N+]([O-])c1cn2c(n1)OC[C@@H](OCc1ncc(-c3ccc(OC(F)F)cc3)cn1)C2` showed a solubility of 7.8 µg/mL (≈ 18.6 µM). Also, the MIC in data set [4] worked out at 0.12 µM (≈ 0.0503 µg/mL); in data set [5], 7.4 µM (≈ 3.1 µg/mL).
In the same order, the values of `O=[N+]([O-])c1cn2c(n1)OC[C@@H](OCc1ncc(-c3ccc(C(F)(F)F)nc3)cn1)C2` are 85 µg/mL (≈ 201 µM), 0.28 µM (≈ 0.118 µg/mL) and 14 µM (≈ 5.91 µg/mL).
In “physchem [1]”, `O=[N+]([O-])c1cn2c(n1)OC[C@@H](OCc1cnc(-c3ccc(OC(F)F)cc3)nc1)C2` had a solubility of 1.1 µg/mL (≈ 2.62 µM). Besides, the MIC in data set [4] is 0.13 µM (≈ 0.0545 µg/mL); in data set [5] it was 4.4 µM (≈ 1.85 µg/mL).
On to `O=[N+]([O-])c1cn2c(n1)OC[C@@H](OCc1ccc(-c3ncc(C(F)(F)F)cc3Cl)cc1)C2`, for which the solubility in “physchem [1]” stood at 3.3 µg/mL (≈ 7.26 µM); in the data set “physchem [6]” it was 2 µg/mL (≈ 4.4 µM). In addition, the fraction remaining at 1 h is 86% in “in vitro [2]” and 80% in the data set “in vitro [3]”. Also, the MIC in data set [4] amounted to 0.025 µM (≈ 0.0114 µg/mL); in data set [5], 1 µM (≈ 0.455 µg/mL).
In turn, `O=[N+]([O-])c1cn2c(n1)OC[C@@H](OCc1ccc(-c3ccc(F)cn3)cc1)C2` showed a solubility in “physchem [6]” of 275 µg/mL (≈ 743 µM). Besides, the figures for the fraction remaining at 1 h in “in vitro [2]” and in the data set “in vitro [3]” were 83% and 61%, respectively. Moreover, the MIC in data set [4] is 0.035 µM (≈ 0.013 µg/mL); in data set [5], 1.3 µM (≈ 0.481 µg/mL).
For `O=[N+]([O-])c1cn2c(n1)OC[C@@H](OCc1ccc(-c3ccc(OC(F)F)nc3)cc1)C2`, the concentration in solution in the data set “physchem [1]” (solubility) came to 3.2 µg/mL (≈ 7.65 µM). Moreover, the fraction remaining at 1 h in the data set “in vitro [2]” turned out to be 95%; in the data set “in vitro [3]” it was 75%. Also, the figures for the MIC in data set [4] and in data set [5] were 0.045 µM (≈ 0.0188 µg/mL) and 0.66 µM (≈ 0.276 µg/mL), respectively.

Usually solubility stands for the concentration that dissolves in the medium under given conditions. Broadly, the fraction remaining is what is left of the initial amount, in per cent. Higher therefore signals greater stability.

These data come from ChEMBL document CHEMBL1629541, “Synthesis and structure-activity relationships of aza- and diazabiphenyl analogues of the antitubercular drug (6S)-2-nitro-6-{[4-(trifluoromethoxy)benzyl]oxy}-6,7-dihydro-5H-imidazo[2,1-b][1,3]oxazine (PA-824)” (J Med Chem, 2010).
